According to ChEMBL document CHEMBL3885861, “Open TG-GATES”:

Species: Rattus norvegicus
Test: Open TG-GATES - Regimen: Single
Assay type: toxicity, organism-based, Sprague-Dawley
Set-up: regimen Single, gender Male, age 6 weeks
Conditions: in vivo, po, 300 mg/kg, route gavage, dose level High; for APTT / Bas / Eos / Fbg / Hb / Ht / Lym / MCH / MCHC / MCV / Mono / Neu / PT / Plat / RBC / Ret / WBC: tissue Blood; for KIDNEY_L / KIDNEY_R / KIDNEY_TOTAL: tissue Kidney; for LIVER: tissue Liver; for A/G / ALP / ALT / AST / BUN / CRE / Ca / Cl / DBIL / GLC / IP / K / LDH / Na / PL / RALB / TBIL / TC / TG / TP / gamma-GTP: tissue Plasma

CCC1(c2ccccc2)C(=O)NC(=O)NC1=O [PHENOBARBITAL]
TERMINAL_BW (3 h): 225.3 g | APTT (3 h): 22 s | Bas (3 h): 0.2% | Eos (3 h): 1% | Fbg (3 h): 202.2 mg/dL | Hb (3 h): 13.6 g/dL | Ht (3 h): 37.8% | Lym (3 h): 78.6% | MCH (3 h): 21.9 pg | MCHC (3 h): 36% | MCV (3 h): 61.1 fL | Mono (3 h): 2.8% | Neu (3 h): 16.6% | PT (3 h): 12.3 s | Plat (3 h): 122.8 x10_4/uL | RBC (3 h): 619.4 x10_4/ul | Ret (3 h): 7.8% | WBC (3 h): 75.1 x10_2/uL | KIDNEY_L (3 h): 1 g | KIDNEY_R (3 h): 1 g | KIDNEY_TOTAL (3 h): 2.1 g | LIVER (3 h): 10 g | A/G (3 h): 1.6 | ALP (3 h): 833 IU/L | ALT (3 h): 40.2 IU/L | AST (3 h): 73 IU/L | BUN (3 h): 8 mg/dL | CRE (3 h): 0.3 mg/dL | Ca (3 h): 10.5 mg/dL | Cl (3 h): 100.6 meq/L | DBIL (3 h): 0.064 mg/dL | GLC (3 h): 183.2 mg/dL | IP (3 h): 10.3 mg/dL | K (3 h): 4.1 meq/L | LDH (3 h): 142 IU/L | Na (3 h): 140.6 meq/L | PL (3 h): 152 mg/dL | RALB (3 h): 3.2 g/dL | TBIL (3 h): 0.1 mg/dL | TC (3 h): 77 mg/dL | TG (3 h): 57.2 mg/dL | TP (3 h): 5.1 g/dL | gamma-GTP (3 h): 0.8 IU/L | TERMINAL_BW (6 h): 221.9 g | APTT (6 h): 20.5 s | Bas (6 h): 0% | Eos (6 h): 1% | Fbg (6 h): 219 mg/dL | Hb (6 h): 14.2 g/dL | Ht (6 h): 39.1% | Lym (6 h): 76.8% | MCH (6 h): 21.8 pg | MCHC (6 h): 36.3% | MCV (6 h): 60.2 fL | Mono (6 h): 3.4% | Neu (6 h): 17.6% | PT (6 h): 12 s | Plat (6 h): 120.7 x10_4/uL | RBC (6 h): 649.4 x10_4/ul | Ret (6 h): 7.7% | WBC (6 h): 62.8 x10_2/uL | KIDNEY_L (6 h): 1 g | KIDNEY_R (6 h): 1 g | KIDNEY_TOTAL (6 h): 2 g | LIVER (6 h): 9.4 g | A/G (6 h): 1.6 | ALP (6 h): 672.6 IU/L | ALT (6 h): 29.2 IU/L | AST (6 h): 58.4 IU/L | BUN (6 h): 8.6 mg/dL | CRE (6 h): 0.3 mg/dL | Ca (6 h): 10.5 mg/dL | Cl (6 h): 100.4 meq/L | DBIL (6 h): 0.07 mg/dL | GLC (6 h): 176 mg/dL | IP (6 h): 9.5 mg/dL | K (6 h): 4.2 meq/L | LDH (6 h): 162.2 IU/L | Na (6 h): 139.2 meq/L | PL (6 h): 142.4 mg/dL | RALB (6 h): 3.2 g/dL | TBIL (6 h): 0.1 mg/dL | TC (6 h): 74.4 mg/dL | TG (6 h): 44.2 mg/dL | TP (6 h): 5.2 g/dL | gamma-GTP (6 h): 1.2 IU/L | TERMINAL_BW (9 h): 219.7 g | APTT (9 h): 19.3 s | Bas (9 h): 0% | Eos (9 h): 0.8% | Fbg (9 h): 219.4 mg/dL | Hb (9 h): 13.8 g/dL | Ht (9 h): 38.3% | Lym (9 h): 71.8% | MCH (9 h): 22 pg | MCHC (9 h): 36% | MCV (9 h): 60.9 fL | Mono (9 h): 3.6% | Neu (9 h): 22% | PT (9 h): 12.4 s | Plat (9 h): 125.2 x10_4/uL | RBC (9 h): 630.2 x10_4/ul | Ret (9 h): 7.7% | WBC (9 h): 73.7 x10_2/uL | KIDNEY_L (9 h): 1 g | KIDNEY_R (9 h): 1 g | KIDNEY_TOTAL (9 h): 1.9 g | LIVER (9 h): 8.6 g | A/G (9 h): 1.5 | ALP (9 h): 558.2 IU/L | ALT (9 h): 35.8 IU/L | AST (9 h): 78 IU/L | BUN (9 h): 9 mg/dL | CRE (9 h): 0.3 mg/dL | Ca (9 h): 10.3 mg/dL | Cl (9 h): 99.6 meq/L | DBIL (9 h): 0.064 mg/dL | GLC (9 h): 186.2 mg/dL | IP (9 h): 9.7 mg/dL | K (9 h): 4.2 meq/L | LDH (9 h): 170.4 IU/L | Na (9 h): 139.4 meq/L | PL (9 h): 137.8 mg/dL | RALB (9 h): 3 g/dL | TBIL (9 h): 0.1 mg/dL | TC (9 h): 74.8 mg/dL | TG (9 h): 29.8 mg/dL | TP (9 h): 5 g/dL | gamma-GTP (9 h): 1 IU/L | TERMINAL_BW (24 h): 201.5 g | APTT (24 h): 24.3 s | Bas (24 h): 1% | Eos (24 h): 1% | Fbg (24 h): 207 mg/dL | Hb (24 h): 16.1 g/dL | Ht (24 h): 44.2% | Lym (24 h): 82.3% | MCH (24 h): 22 pg | MCHC (24 h): 36.6% | MCV (24 h): 60.1 fL | Mono (24 h): 2.3% | Neu (24 h): 13% | PT (24 h): 12.3 s | Plat (24 h): 145.9 x10_4/uL | RBC (24 h): 735.3 x10_4/ul | Ret (24 h): 6.5% | WBC (24 h): 84.5 x10_2/uL | KIDNEY_L (24 h): 1 g | KIDNEY_R (24 h): 1 g | KIDNEY_TOTAL (24 h): 2 g | LIVER (24 h): 7.7 g | A/G (24 h): 1.6 | ALP (24 h): 449.7 IU/L | ALT (24 h): 21 IU/L | AST (24 h): 53 IU/L | BUN (24 h): 9 mg/dL | CRE (24 h): 0.3 mg/dL | Ca (24 h): 10.5 mg/dL | Cl (24 h): 100 meq/L | DBIL (24 h): 0.06 mg/dL | GLC (24 h): 141 mg/dL | IP (24 h): 9 mg/dL | K (24 h): 4.6 meq/L | LDH (24 h): 113.3 IU/L | Na (24 h): 139.3 meq/L | PL (24 h): 100 mg/dL | RALB (24 h): 3.2 g/dL | TBIL (24 h): 0.1 mg/dL | TC (24 h): 58.7 mg/dL | TG (24 h): 13.3 mg/dL | TP (24 h): 5.2 g/dL | gamma-GTP (24 h): 1 IU/L
